Test results reported in ChEMBL document CHEMBL1140580, “Synthesis and characterization of trans-4-(4-chlorophenyl)pyrrolidine-3-carboxamides of piperazinecyclohexanes as ligands for the melanocortin-4 receptor” (Bioorg Med Chem Lett, 2007).

Columns and labels:
Melanocortin receptor 4 [1] = molecular target: T1, Melanocortin receptor 4 (Homo sapiens, UniProt P32245); experiment: Agonist activity at MC4R assessed as stimulation of cAMP release relative to alphaMSH; format: functional
Melanocortin receptor 4 [2] = molecular target: T1, Melanocortin receptor 4; experiment: Agonist activity at MC4R assessed as stimulation of cAMP release; format: functional
Melanocortin receptor 4 [3] = molecular target: T1, Melanocortin receptor 4; experiment: Displacement of […]NDPMSH from human MC4R expressed in HEK293 cells; format: cell-based

T1 sequence (P32245 whole entry): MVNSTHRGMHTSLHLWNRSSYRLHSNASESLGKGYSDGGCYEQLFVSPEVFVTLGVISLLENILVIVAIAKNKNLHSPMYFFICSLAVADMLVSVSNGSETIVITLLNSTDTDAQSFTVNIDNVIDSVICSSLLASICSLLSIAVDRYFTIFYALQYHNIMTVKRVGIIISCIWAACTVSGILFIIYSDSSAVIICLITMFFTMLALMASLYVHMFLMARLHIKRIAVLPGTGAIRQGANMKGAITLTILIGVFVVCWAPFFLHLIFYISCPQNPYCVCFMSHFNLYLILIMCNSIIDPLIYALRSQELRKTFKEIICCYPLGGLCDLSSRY

Row | Intrinsic activity (Melanocortin receptor 4 [1]) | EC50 (Melanocortin receptor 4 [2]) | Ki (Melanocortin receptor 4 [3]) | Structure (SMILES)
1 | 31% | 1100 nM | 26 nM | CC(C)N1C[C@H](C(=O)N2CCN(C3(CNCc4ccccc4)CCCCC3)CC2)[C@@H](c2ccc(Cl)cc2)C1
2 | – | – | 110 nM | CC(C)N1C[C@H](C(=O)N2CCN(C3(CNCc4ccccc4OC(F)(F)F)CCCCC3)CC2)[C@@H](c2ccc(Cl)cc2)C1
3 | 16% | 1100 nM | 65 nM | CC(C)N1C[C@H](C(=O)N2CCN(C3(CNCc4ccc(N(C)C)cc4)CCCCC3)CC2)[C@@H](c2ccc(Cl)cc2)C1
4 | 32% | 570 nM | 38 nM | CC(C)N1C[C@H](C(=O)N2CCN(C3(CNCc4ccco4)CCCCC3)CC2)[C@@H](c2ccc(Cl)cc2)C1
5 | – | – | 690 nM | CC(C)N1C[C@H](C(=O)N2CCN(C3(CNCCc4ccccn4)CCCCC3)CC2)[C@@H](c2ccc(Cl)cc2)C1
6 | 29% | – | 16 nM | COc1ccc(CNCC2(N3CCN(C(=O)[C@H]4CN(C(C)C)C[C@@H]4c4ccc(Cl)cc4)CC3)CCCCC2)c(OC)c1
7 | 7% | – | 8.3 nM | CC(C)N1C[C@H](C(=O)N2CCN(C3(CNCc4ccc5c(c4)OCO5)CCCCC3)CC2)[C@@H](c2ccc(Cl)cc2)C1
8 | 3% | – | 430 nM | CC(N)C(=O)N1C[C@H](C(=O)N2CCN(C3(CNCc4ccccc4)CCCCC3)CC2)[C@@H](c2ccc(Cl)cc2)C1 (stereo not given in full)
9 | – | – | 52 nM | CC(C)N1C[C@H](C(=O)N2CCN(C3(CNCc4ccc([N+](=O)[O-])cc4)CCCCC3)CC2)[C@@H](c2ccc(Cl)cc2)C1
10 | 70% | 1000 nM | 29 nM | O=C([C@H]1CN(C2CCOCC2)C[C@@H]1c1ccc(Cl)cc1)N1CCN(C2(CNCc3ccccc3)CCCCC2)CC1
11 | 58% | 590 nM | 37 nM | CC(C)N1C[C@H](C(=O)N2CCN(C3(CNCc4cccs4)CCCCC3)CC2)[C@@H](c2ccc(Cl)cc2)C1
12 | 31% | – | 390 nM | CC(C)N1C[C@H](C(=O)N2CCN(C3(CNCc4nccn4C)CCCCC3)CC2)[C@@H](c2ccc(Cl)cc2)C1
13 | 49% | 110 nM | 220 nM | CC(C)N1C[C@H](C(=O)N2CCN(C3(CNCc4c[nH]cn4)CCCCC3)CC2)[C@@H](c2ccc(Cl)cc2)C1
14 | – | – | 510 nM | CC(C)N1C[C@H](C(=O)N2CCN(C3(CNC(=O)Cc4ccccc4)CCCCC3)CC2)[C@@H](c2ccc(Cl)cc2)C1
15 | 0% | – | 670 nM | CC(C)C(N)C(=O)N1C[C@H](C(=O)N2CCN(C3(CNCc4ccccc4)CCCCC3)CC2)[C@@H](c2ccc(Cl)cc2)C1 (stereo not given in full)
16 | – | – | 4600 nM | CCNC(=O)N1C[C@H](C(=O)N2CCN(C3(CNCc4ccncc4)CCCCC3)CC2)[C@@H](c2ccc(Cl)cc2)C1
17 | – | – | 140 nM | CC(C)N1C[C@H](C(=O)N2CCN(C3(CNCc4ccccc4C(F)(F)F)CCCCC3)CC2)[C@@H](c2ccc(Cl)cc2)C1
18 | 72% | 740 nM | 130 nM | CC(C)N1C[C@H](C(=O)N2CCN(C3(CNCc4nccs4)CCCCC3)CC2)[C@@H](c2ccc(Cl)cc2)C1
19 | 43% | 50 nM | 11 nM | Cc1c(CNCC2(N3CCN(C(=O)[C@H]4CN(C(C)C)C[C@@H]4c4ccc(Cl)cc4)CC3)CCCCC2)cnn1C
20 | 17% | – | 3.6 nM | COc1ccc(CNCC2(N3CCN(C(=O)[C@H]4CN(C(C)C)C[C@@H]4c4ccc(Cl)cc4)CC3)CCCCC2)cc1
21 | 8% | – | 100 nM | CNCC(=O)N1C[C@H](C(=O)N2CCN(C3(CNCc4ccccc4)CCCCC3)CC2)[C@@H](c2ccc(Cl)cc2)C1

Row | Intrinsic activity (Melanocortin receptor 4 [1]) | EC50 (Melanocortin receptor 4 [2]) | Ki (Melanocortin receptor 4 [3]) | Structure (SMILES)
22 | 34% | 1200 nM | 76 nM | CC(C)N1C[C@H](C(=O)N2CCN(C3(CNCc4ccccn4)CCCCC3)CC2)[C@@H](c2ccc(Cl)cc2)C1
23 | 53% | 480 nM | 75 nM | CC(C)N1C[C@H](C(=O)N2CCN(C3(CNCc4ccoc4)CCCCC3)CC2)[C@@H](c2ccc(Cl)cc2)C1
24 | – | – | 1200 nM | CC(C)N1C[C@H](C(=O)N2CCN(C3(CNCc4cc5ccccc5n4C)CCCCC3)CC2)[C@@H](c2ccc(Cl)cc2)C1
25 | 27% | 1300 nM | 11 nM | CC(C)N1C[C@H](C(=O)N2CCN(C3(CNCc4ccc(F)cc4F)CCCCC3)CC2)[C@@H](c2ccc(Cl)cc2)C1
26 | 29% | 4200 nM | 90 nM | CC(C)N1C[C@H](C(=O)N2CCN(C3(CNCc4ccc(Cl)cc4)CCCCC3)CC2)[C@@H](c2ccc(Cl)cc2)C1
27 | 20% | – | 330 nM | CC(C)N1C[C@H](C(=O)N2CCN(C3(CNS(=O)(=O)c4ccccc4)CCCCC3)CC2)[C@@H](c2ccc(Cl)cc2)C1
28 | – | – | 27 nM | CSc1ccc(CNCC2(N3CCN(C(=O)[C@H]4CN(C(C)C)C[C@@H]4c4ccc(Cl)cc4)CC3)CCCCC2)cc1
29 | 69% | 230 nM | 560 nM | CC(C)N1C[C@H](C(=O)N2CCN(C3(CNCc4ncc[nH]4)CCCCC3)CC2)[C@@H](c2ccc(Cl)cc2)C1
30 | – | – | 2800 nM | COc1ccc(CN(Cc2ccc(OC)cc2)CC2(N3CCN(C(=O)[C@H]4CN(C(C)C)C[C@@H]4c4ccc(Cl)cc4)CC3)CCCCC2)cc1
31 | – | – | 1200 nM | CC(C)N1C[C@H](C(=O)N2CCN(C3(CN)CCCCC3)CC2)[C@@H](c2ccc(Cl)cc2)C1
32 | 48% | 1000 nM | 62 nM | COc1ccccc1CNCC1(N2CCN(C(=O)[C@H]3CN(C(C)C)C[C@@H]3c3ccc(Cl)cc3)CC2)CCCCC1
33 | 8% | – | 190 nM | CCCC(=O)N1C[C@H](C(=O)N2CCN(C3(CNCc4ccccc4)CCCCC3)CC2)[C@@H](c2ccc(Cl)cc2)C1
34 | – | – | 300 nM | CC(C)N1C[C@H](C(=O)N2CCN(C3(CNCC4CCCCC4)CCCCC3)CC2)[C@@H](c2ccc(Cl)cc2)C1
35 | – | – | 1800 nM | COc1ccc(CN(CC(C)C)CC2(N3CCN(C(=O)[C@H]4CN(C(C)C)C[C@@H]4c4ccc(Cl)cc4)CC3)CCCCC2)cc1
36 | 13% | – | 190 nM | CC(=O)N1C[C@H](C(=O)N2CCN(C3(CNCc4ccccc4)CCCCC3)CC2)[C@@H](c2ccc(Cl)cc2)C1
37 | – | – | 110 nM | COc1ccc(CN(C)CC2(N3CCN(C(=O)[C@H]4CN(C(C)C)C[C@@H]4c4ccc(Cl)cc4)CC3)CCCCC2)cc1
38 | 27% | 190 nM | 29 nM | CC(=O)Nc1ccc(CNCC2(N3CCN(C(=O)[C@H]4CN(C(C)C)C[C@@H]4c4ccc(Cl)cc4)CC3)CCCCC2)cc1
39 | – | – | 3400 nM | CS(=O)(=O)N1C[C@H](C(=O)N2CCN(C3(CNCc4ccncc4)CCCCC3)CC2)[C@@H](c2ccc(Cl)cc2)C1
40 | 6% | – | 2.1 nM | CC(C)Oc1ccc(CNCC2(N3CCN(C(=O)[C@H]4CN(C(C)C)C[C@@H]4c4ccc(Cl)cc4)CC3)CCCCC2)cc1
41 | – | – | 1300 nM | COc1ccc(CN(CC2(N3CCN(C(=O)[C@H]4CN(C(C)C)C[C@@H]4c4ccc(Cl)cc4)CC3)CCCCC2)OC)cc1
42 | – | – | 190 nM | CCN(Cc1ccc(OC)cc1)CC1(N2CCN(C(=O)[C@H]3CN(C(C)C)C[C@@H]3c3ccc(Cl)cc3)CC2)CCCCC1

Row | Intrinsic activity (Melanocortin receptor 4 [1]) | EC50 (Melanocortin receptor 4 [2]) | Ki (Melanocortin receptor 4 [3]) | Structure (SMILES)
43 | 33% | 1800 nM | 17 nM | O=C([C@H]1CN(C2CCCC2)C[C@@H]1c1ccc(Cl)cc1)N1CCN(C2(CNCc3ccccc3)CCCCC2)CC1
44 | 16% | – | 130 nM | CC(C)N1C[C@H](C(=O)N2CCN(C3(CNCc4ccc(C(F)(F)F)cc4)CCCCC3)CC2)[C@@H](c2ccc(Cl)cc2)C1
45 | – | – | 3100 nM | CCC(=O)N1C[C@H](C(=O)N2CCN(C3(CNCc4ccncc4)CCCCC3)CC2)[C@@H](c2ccc(Cl)cc2)C1
46 | 40% | – | 340 nM | CC(C)N1C[C@H](C(=O)N2CCN(C3(CNS(=O)(=O)Cc4ccccc4)CCCCC3)CC2)[C@@H](c2ccc(Cl)cc2)C1
47 | 7% | – | 100 nM | COCC(C)N1C[C@H](C(=O)N2CCN(C3(CNCc4ccccc4)CCCCC3)CC2)[C@@H](c2ccc(Cl)cc2)C1 (stereo not given in full)
48 | – | – | 1500 nM | CC(=O)N(Cc1ccncc1)CC1(N2CCN(C(=O)[C@H]3CN(C(C)C)C[C@@H]3c3ccc(Cl)cc3)CC2)CCCCC1
49 | – | – | 3000 nM | CC(=O)N1C[C@H](C(=O)N2CCN(C3(CNCc4ccncc4)CCCCC3)CC2)[C@@H](c2ccc(Cl)cc2)C1
50 | – | – | 200 nM | O=C([C@H]1CN(Cc2ccccc2)C[C@@H]1c1ccc(Cl)cc1)N1CCN(C2(CNCc3ccncc3)CCCCC2)CC1
51 | 21% | – | 32 nM | COC(=O)c1ccc(CNCC2(N3CCN(C(=O)[C@H]4CN(C(C)C)C[C@@H]4c4ccc(Cl)cc4)CC3)CCCCC2)cc1
52 | 26% | – | 180 nM | O=C(C1CCCC1)N1C[C@H](C(=O)N2CCN(C3(CNCc4ccccc4)CCCCC3)CC2)[C@@H](c2ccc(Cl)cc2)C1
53 | – | – | 2200 nM | O=C([C@H]1CNC[C@@H]1c1ccc(Cl)cc1)N1CCN(C2(CNCc3ccncc3)CCCCC2)CC1
54 | 1% | – | 140 nM | O=C([C@H]1CN(Cc2ccccc2)C[C@@H]1c1ccc(Cl)cc1)N1CCN(C2(CNCc3ccccc3)CCCCC2)CC1
55 | 19% | – | 210 nM | CCC(=O)N1C[C@H](C(=O)N2CCN(C3(CNCc4ccccc4)CCCCC3)CC2)[C@@H](c2ccc(Cl)cc2)C1
56 | 23% | – | 24 nM | CC(C)N1C[C@H](C(=O)N2CCN(C3(CNCc4cccc(F)c4)CCCCC3)CC2)[C@@H](c2ccc(Cl)cc2)C1
57 | – | – | 2700 nM | CC(C)CN(Cc1ccncc1)CC1(N2CCN(C(=O)[C@H]3CN(C(C)C)C[C@@H]3c3ccc(Cl)cc3)CC2)CCCCC1
58 | – | – | 1300 nM | CCN(Cc1ccncc1)CC1(N2CCN(C(=O)[C@H]3CN(C(C)C)C[C@@H]3c3ccc(Cl)cc3)CC2)CCCCC1
59 | 47% | – | 210 nM | CC(C)C(=O)N1C[C@H](C(=O)N2CCN(C3(CNCc4ccccc4)CCCCC3)CC2)[C@@H](c2ccc(Cl)cc2)C1
60 | – | – | 310 nM | COCC(C)NCC1(N2CCN(C(=O)[C@H]3CN(C(C)C)C[C@@H]3c3ccc(Cl)cc3)CC2)CCCCC1 (stereo not given in full)
61 | – | – | 750 nM | CC(C)N1C[C@H](C(=O)N2CCN(C3(CN(C)Cc4ccncc4)CCCCC3)CC2)[C@@H](c2ccc(Cl)cc2)C1
62 | 9% | – | 110 nM | NCCC(=O)N1C[C@H](C(=O)N2CCN(C3(CNCc4ccccc4)CCCCC3)CC2)[C@@H](c2ccc(Cl)cc2)C1
